Experimental data as given in US20100204248A1, “MEDICAMENTS AND METHODS FOR INHIBITION OF NON-OCULAR SCARRING” (Renovo Limited, priority 2007, published 2010).

Key:
[1] = tested on: full thickness cutaneous incisional wounds; test: Scarring model: rat incisional wounds, macroscopic and microscopic VAS scar assessment at day 70; type: in vivo, Sprague Dawley rats; conditions: for macroscopic appearance of scars (macroscopic VAS): before wounding and 1 day post-wounding; for macroscopic appearance of scars (macroscopic VAS) / microscopic appearance of scars (microscopic VAS): vs naïve control or diluent control
Method: At day 0, male Sprague Dawley rats (200-250 g) were anaesthetised, shaved and wound sites were marked according to the Renovo rat incisional wounding template (2 wound model, 2×1 cm wounds, 5 cm from the base of the skull and 1 cm from the midline in each rat). One hundred microlitres of 6-mercaptopurine at 1 ng, 10 ng or 1000 ng in phosphate buffered saline (PBS, pH 7.2; GIBCO BRL, Cat. #20012-019) containing 5% ethanol was injected intradermally at the wound sites. […] Separate groups of rats used as naïve controls and diluent controls. Naïve control animals were wounded without treatment, whilst diluent control animals were injected with 100 μl of the PBS/ethanol mixture prior to wounding. All treated or diluent control wounds were re-injected again 1 day post-wounding with the appropriate treatment via injection of 50 μl to each of the two margins of the 1 cm wound. Wounds from the treated, naïve control and diluent control animals were all harvested at day 70 post-wounding. The wounds were photographed after wounding, prior to re-injection on day 1 and on day of harvest. The scars were assessed using standard macroscopic scar assessment using a visual analogue scale (VAS) consisting of a 0-10 cm line representing a scale, from left to right, of 0 (corresponding to normal skin) to 10 (indicative of a bad scar). For microscopic assessment the scars were excised from the experimental rats (incorporating a small amount of surrounding normal tissue) and fixed in 10% (v/v) buffered formal saline. The fixed tissue was then processed for wax histology, stained using Masson's trichrome, and scarring assessed using a microscopic visual analogue scale (VAS).

[2] = tested on: excisional wounds; test: Excisional wound healing model, 5 mm punch biopsy wounds harvested day 3; type: in vivo, Sprague Dawley rats
Method: One hundred microlitres of 6-mercaptopurine at 1 ng, 10 ng or 1000 ng in phosphate buffered saline (PBS, pH 7.2; GIBCO BRL, Cat. #20012-019) containing 5% ethanol was injected intradermally at the wound sites. […] Separate groups of rats used as naïve controls and diluent controls. Naïve control animals were wounded without treatment, whilst diluent control animals were injected with 100 μl of the PBS/ethanol mixture prior to wounding. […] For microscopic assessment the scars were excised from the experimental rats (incorporating a small amount of surrounding normal tissue) and fixed in 10% (v/v) buffered formal saline. […]

[3] = molecular target: NR4A2 (Homo sapiens, UniProt P43354); conditions: cited from earlier work
Sequence of NR4A2 (P43354 whole entry): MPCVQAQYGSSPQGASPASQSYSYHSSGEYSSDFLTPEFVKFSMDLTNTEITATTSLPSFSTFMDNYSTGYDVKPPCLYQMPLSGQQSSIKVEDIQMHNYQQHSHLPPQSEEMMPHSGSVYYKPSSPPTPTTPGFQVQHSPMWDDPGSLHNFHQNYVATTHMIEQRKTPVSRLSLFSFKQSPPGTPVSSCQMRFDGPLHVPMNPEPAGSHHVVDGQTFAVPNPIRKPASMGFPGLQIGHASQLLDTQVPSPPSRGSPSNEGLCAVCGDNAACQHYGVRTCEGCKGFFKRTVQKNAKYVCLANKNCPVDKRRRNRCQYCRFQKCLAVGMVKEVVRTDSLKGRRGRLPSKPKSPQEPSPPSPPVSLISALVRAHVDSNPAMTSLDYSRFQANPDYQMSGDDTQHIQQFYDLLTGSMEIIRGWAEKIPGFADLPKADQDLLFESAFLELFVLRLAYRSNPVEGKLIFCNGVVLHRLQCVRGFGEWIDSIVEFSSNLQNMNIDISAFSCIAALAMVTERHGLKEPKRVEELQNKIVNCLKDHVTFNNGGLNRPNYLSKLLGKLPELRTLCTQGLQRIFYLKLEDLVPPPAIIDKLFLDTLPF

[4] = tested on: incisional wounds; test: Incisional wound healing model, wounds harvested three days post-wounding; type: in vivo, Sprague Dawley rats
Method: At day 0, male Sprague Dawley rats (200-250 g) were anaesthetised, shaved and wound sites were marked according to the Renovo rat incisional wounding template (2 wound model, 2×1 cm wounds, 5 cm from the base of the skull and 1 cm from the midline in each rat). One hundred microlitres of 6-mercaptopurine at 1 ng, 10 ng or 1000 ng in phosphate buffered saline (PBS, pH 7.2; GIBCO BRL, Cat. #20012-019) containing 5% ethanol was injected intradermally at the wound sites. The intradermal injections caused the formation of a raised bleb, which was then immediately incised to form 1 cm long experimental wounds. Separate groups of rats used as naïve controls and diluent controls. Naïve control animals were wounded without treatment, whilst diluent control animals were injected with 100 μl of the PBS/ethanol mixture prior to wounding. All treated or diluent control wounds were re-injected again 1 day post-wounding with the appropriate treatment via injection of 50 μl to each of the two margins of the 1 cm wound. Wounds from the treated, naïve control and diluent control animals were all harvested at day 70 post-wounding.
Treated and control incisional wounds were created as described above, to allow assessment of the effects of NR4A agonists, such as 6-mercaptopurines, on wound healing. Wounds from the treated, naïve control and diluent control animals were all harvested at three days post-wounding.
The wounds were photographed after wounding, prior to re-injection on day one and on the day of harvest. Day three incisional or excisional wounds were excised from the experimental rats (incorporating a small amount of surrounding normal tissue). […] The fixed tissue was then processed for wax histology, stained using Masson's trichrome, and wound width assessed using image analysis software. Width of incisional wounds was measured at a point mid-way through the depth of the wound, whereas width of excisional wounds was measured at the top of the wounds.

[5] = molecular target: NR4A3 (Homo sapiens, UniProt Q92570); conditions: cited from earlier work
Sequence of NR4A3 (Q92570 whole entry): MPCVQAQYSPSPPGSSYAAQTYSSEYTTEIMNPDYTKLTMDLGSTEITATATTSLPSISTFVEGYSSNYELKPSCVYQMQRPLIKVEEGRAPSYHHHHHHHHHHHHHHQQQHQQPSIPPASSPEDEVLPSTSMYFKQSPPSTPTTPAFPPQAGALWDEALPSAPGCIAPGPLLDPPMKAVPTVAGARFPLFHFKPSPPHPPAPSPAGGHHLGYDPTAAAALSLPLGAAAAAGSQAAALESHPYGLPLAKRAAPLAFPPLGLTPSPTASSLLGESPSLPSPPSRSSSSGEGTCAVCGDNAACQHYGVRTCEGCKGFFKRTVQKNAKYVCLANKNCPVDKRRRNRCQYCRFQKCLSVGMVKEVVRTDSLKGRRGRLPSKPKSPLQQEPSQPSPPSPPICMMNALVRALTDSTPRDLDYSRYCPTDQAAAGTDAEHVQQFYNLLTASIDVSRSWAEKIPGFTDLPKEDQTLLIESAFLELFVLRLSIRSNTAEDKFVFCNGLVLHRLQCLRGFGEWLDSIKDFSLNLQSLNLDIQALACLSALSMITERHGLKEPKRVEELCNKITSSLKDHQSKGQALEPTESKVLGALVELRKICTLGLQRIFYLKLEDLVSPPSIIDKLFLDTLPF

[6] = molecular target: NR4A1 (Homo sapiens, UniProt P22736); conditions: cited from earlier work
Sequence of NR4A1 (P22736 whole entry): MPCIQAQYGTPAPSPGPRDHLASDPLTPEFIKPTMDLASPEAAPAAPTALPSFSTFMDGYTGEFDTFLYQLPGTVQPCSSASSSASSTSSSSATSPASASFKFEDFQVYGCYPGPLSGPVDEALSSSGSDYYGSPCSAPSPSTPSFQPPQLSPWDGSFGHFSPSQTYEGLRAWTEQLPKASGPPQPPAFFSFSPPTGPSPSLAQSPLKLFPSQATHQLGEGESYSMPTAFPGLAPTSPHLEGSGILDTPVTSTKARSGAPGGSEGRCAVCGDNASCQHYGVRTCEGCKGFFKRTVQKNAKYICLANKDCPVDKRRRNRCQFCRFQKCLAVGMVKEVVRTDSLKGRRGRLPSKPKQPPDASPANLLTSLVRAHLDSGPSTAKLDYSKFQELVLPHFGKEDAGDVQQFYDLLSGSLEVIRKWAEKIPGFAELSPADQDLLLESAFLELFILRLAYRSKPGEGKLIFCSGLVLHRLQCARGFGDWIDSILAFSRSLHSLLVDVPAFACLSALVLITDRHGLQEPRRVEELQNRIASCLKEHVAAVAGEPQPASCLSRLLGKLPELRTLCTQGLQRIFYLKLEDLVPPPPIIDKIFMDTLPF

[7] = day 3, measured at top of wound, 1, 10 or 1000 ng/100 μl intradermal
[8] = day 3, measured mid-way through wound depth, 1, 10 or 1000 ng/100 μl intradermal

Sc1ncnc2nc[nH]c12 [6-mercaptopurine]
macroscopic appearance of scars (macroscopic VAS) ([1]; 1 ng/100 μl intradermal): improved
microscopic appearance of scars (microscopic VAS) ([1]; 1 ng/100 μl intradermal): significantly improved
inhibition of scarring, microscopic appearance ([1]; 1 ng/100 μl, compared to both diluent and control wounds (p<0.01)): significantly inhibited scarring
inhibition of scarring, macroscopic appearance of treated wounds ([1]; 1 ng/100 μl, p<0.05 as compared to diluent controls): statistically significant inhibition of scarring
macroscopic appearance of scars (macroscopic VAS) ([1]; 10 ng/100 μl intradermal): improved
microscopic appearance of scars (microscopic VAS) ([1]; 10 ng/100 μl intradermal): significantly improved
inhibition of scarring, microscopic appearance ([1]; 10 ng/100 μl, compared to diluent and naïve controls (p<0.05)): significantly inhibited scarring
macroscopic appearance of scars (macroscopic VAS) ([1]; 1000 ng/100 μl intradermal): improved
microscopic appearance of scars (microscopic VAS) ([1]; 1000 ng/100 μl intradermal): significantly improved
inhibition of scarring, microscopic appearance ([1]; 1000 ng/100 μl, compared to diluent controls (p<0.05)): significantly inhibited scarring
inhibition of scarring, macroscopic appearance of treated wounds ([1]; 1000 ng/100 μl, p<0.05 as compared to both diluent and naïve controls): statistically significant inhibition of scarring
width of excisional wounds lower than naïve controls, significance ([2]; 1 ng/100 μl, day 3, p<0.01 versus naïve control only (FIG. 5)): significantly so
width of excisional wounds compared to controls [2, 7]: not increased
width of excisional wounds compared to naïve controls [2, 7]: consistently lower
percentage re-epithelialisation of excisional wounds ([2]; three days after excision, vs diluent control and naïve control): trend towards increased re-epithelialisation
agonist activity [3]: agonist
width of incisional wounds compared to controls [4, 8]: not increased
width of incisional wounds compared to naïve controls [4, 8]: consistently lower
re-epithelialisation of incisional wounds ([4]; three days after wounding, comparable with control wounds): fully re-epithelialised
agonist activity [5]: agonist
agonist activity [6]: agonist
